Results reported in paper PMC6442119, “The antitumor activity of CYB-L10, a human topoisomerase IB catalytic inhibitor” (Journal of Enzyme Inhibition and Medicinal Chemistry, 2019).

Legend:
Test in all cases: MTT assay
MCF-7 = assay type: cell-based; conditions: Homo sapiens, MCF7; Parental cell line MCF-7, MTT, 72 h
DU-145 = assay type: cell-based; conditions: Homo sapiens; Parental cell line DU-145, MTT, 72 h
RC0.1 = conditions: Homo sapiens, 72 h, read-out: GI50 ± SD

COc1cccc2c1C(=O)c1c(O)c3c(c(O)c1C2=O)C[C@@](O)(C(=O)CO)C[C@@H]3O[C@H]1C[C@H](N)[C@H](O)[C@H](C)O1 [DOX, doxorubicin, reference compound]
GI50 (MCF-7): 150 ± 3 nM

CC[C@@]1(O)C(=O)OCc2c1cc1n(c2=O)Cc2cc3ccccc3nc2-1 [CPT, Camptothecin, reference compound]
GI50 (DU-145): 19 ± 9 nM | GI50 (RC0.1): 7530 ± 1880 nM
